According to article PMC7179022, “Carvacrol Prodrugs with Antimicrobial Activity Loaded on Clay Nanocomposites” (Materials, 2020):
In brackets after ≈: the same amount, converted by molar mass.

Experiments:
[1] = In vitro release studies of WSCP1-3 loaded-VHS in a dissolution tester; type: physicochemical; details: 37 °C, from prodrug-VHS nanohybrid
Experimental: Release studies were conducted in a dissolution tester (Sotax AT7, SOTAX Group, Aesch, Switzerland). […] During the test, temperature was maintained constant at 37 °C and agitation was achieved using a paddle system set to 100 rpm. At predetermined time intervals, 5 mL of dissolution medium was withdrawn, filtered with 0.45 μm Millipore^© membranes, and replaced with an equal volume of the corresponding fresh dissolution medium. […] Va is the volume picked up; and Ci is the concentration of drug at time i.

[2] = Chemical conversion of carvacrol prodrugs to carvacrol in water and buffer solutions (HPLC); type: physicochemical; details: 37 °C, 1 mg/mL, mean (±SD) of three experiments
Experimental: We removed 400 μL samples at various time intervals and drug concentrations were analyzed by high performance liquid chromatography (HPLC) using an Agilent 1260 Infinity II HPLC (Agilent, Santa Clara, CA, USA) consisting of quaternary pump, autosampler, column oven, and UV-Vis diode-array detector. Samples were run in an Agilent Poroshell 120 EC-C18 column (4 μm, 4.60 × 150 mm; Agilent, Santa Clara, CA, USA) maintained at 25 °C. The mobile phase consisted of a mixture 50:50 v/v H2O MilliQ (Merck KGaA, Darmstadt, Germany) and CH3CN with 0.1% trifluoracetic acid (TFA) flushing at an isocratic flow rate of 1 mL/min. The detector was set at a wavelength of 270 nm. Data were processed using LC Open LAB HPLC 1260 software (Agilent, Santa Clara, CA, USA). Results are reported as relative difference (RD%) of prodrugs conversion, calculated with Equation (1):(1) RD%=Ci− Cf/Ci ×100 where Ci is the prodrug concentration at zero time point and Cf is the prodrug concentration at the end of incubation.

[3] = cited from earlier work
[4] = design: method as in PMID 16869897, PMID 31284397; details: cited from earlier work
[5] = acid pH (0.1 M HCl, pH 1.2), 120 min
[6] = pH 6.8 phosphate buffer, 240 min

Row | amount of prodrug released from VHS [1, 5] [%] | amount of prodrug released from VHS [1, 6] [%] | pseudo-first-order dissociation rate constant Kobs ([2]; pH 6.8 buffer) | pseudo-first-order dissociation rate constant Kobs ([2]; pH 7.4 buffer) | SMILES | water solubility [3] [mg/mL] | octanol/water partition coefficient (logP o/w) [4]
1 | 38 | 65 | 0.2982 (±0.0106) h^−1 | – | Cc1ccc(C(C)C)cc1OC(=O)CN [WSCP1] | – | –
2 | 54 | 78 | 0.9027 (±0.0042) h^−1 | 0.7878 (±0.0629) h^−1 | Cc1ccc(C(C)C)cc1OC(=O)[C@@H](C)N [WSCP2] | – | –
3 | 45 | 44 | 0.0381 (±0.0002) h^−1 | 0.0420 (±0.0006) h^−1 | Cc1ccc(C(C)C)cc1OC(=O)CCN [WSCP3] | – | –
4 | – | – | – | – | Cc1ccc(C(C)C)cc1O [carvacrol, 2-methyl-5-isopropylphenol] | 0.11 (≈ 732 µM) | 3.64
